Source: US20070021357A1, “Treatment of inflammatory conditions” (Dynamis Therapeutics, Inc., priority 2005, published 2007)
Values joined by “and” are separate entries in the source; they are usually repeats but may differ in a detail not shown here. Equal entries are not always repeated.

How the values were obtained:
STZ-diabetic rats = assay: Skin elasticity measurement (vacuum pull) in STZ-diabetic and normal rats; type: in vivo; settings: 50 mg/kg daily, eight weeks, p=0.39
Procedure: Experiments were performed to determine the effects of DYN 12 on the loss of skin elasticity associated with diabetes. To this end, two groups of STZ-diabetic rats and two groups of normal rats were subjected to treatment with DYN 12 or saline. One group of STZ-diabetic rats (n=9) received daily subcutaneous injections of DYN 12 at 50 mg/kg for eight weeks, as did one group of normal rats (n=6). A group of control diabetic rats (n=10) and a group of normal rats (n=6) received saline instead of DYN 12. One rat was removed from the diabetic DYN 12 group after 2 weeks because its blood glucose readings were inconsistent (too low) with other diabetic rats.
A non-invasive procedure based on CyberDERM, Inc. technology utilizing a skin elasticity measurement device was used to test the effects of DYN 12 treatment on skin elasticity. The procedure provides for non-invasive measurement of skin elasticity based upon the amount of vacuum pull required to displace skin. A suction cup probe is adhered to an area of shaved skin in order to form an airtight seal. Then, a vacuum is applied to the area of the skin inside the suction cup until the skin is displaced past a sensor located inside the probe. Accordingly, the more pressure that is required to displace the skin, the less elastic the skin is.

diabetic rats = assay: Skin elasticity/muscle strength measurement on alert, restrained rats; type: in vivo; settings: preliminary data
Procedure: FIG. 15 is graphic illustration of the effects of DYN 12 (3-O-methylsorbitollysine) treatment on skin elasticity. Diabetic or normal rats were treated with DYN 12 (50 mg/kg daily) or saline for eight weeks and then subjected to skin elasticity tests. The four groups used included diabetic controls (saline injection; solid black bar), diabetics treated with DYN 12 (open bar), normal animal controls (saline injections; stippled bar), and normal animals treated with DYN 12 (cross-hatched bar). Data are expressed in kilopascals (kPA) and are shown as averages of the results obtained with each particular group of test subjects. Measurements were taken on the hind leg of the test subjects and were taken on an alert animal restrained by a technician.
Skin elasticity measurements were also taken on the test subjects as described above, but without sedating the test animals before measurement. FIG. 15 illustrates skin elasticity measurements taken on the hind leg of the test subjects while the subjects were alert and being restrained by a technician.
In these experiments, the animals were fiercely fighting restraint and the results are different.

3DG [1] = assay: Plasma 3DG levels in diabetic and non-diabetic rats; type: in vivo; settings: 50 mg/kg body weight injections in saline, within one week
Procedure: A cohort of twelve diabetic rats was divided into two groups of six. The first group received saline-only injections, and the second received injections of 3-O-methyl sorbitollysine (50 mg/kg body weight) in saline solution. The same procedure was conducted on a cohort of twelve non-diabetic rats.

[2] = Locus of 3-O-methyl sorbitollysine uptake in vivo (tissues, urine, plasma); design: species or system rats
Procedure: […] Urine was collected for 3 hours, after which the rats were sacrificed. The tissues to be analyzed were removed and freeze clamped in liquid nitrogen. Perchloric acid extracts of the tissues were used for metabolite analysis. The tissues examined were taken from the brain, heart, muscle, sciatic nerve, spleen, pancreas, liver, and kidney. Plasma was also analyzed.

3DG [3] = settings: Kappler et al., 2002; cited from earlier work

SMILES: COC(C(O)CNCCCCC(N)C(=O)O)C(O)C(O)CO (centres unmarked) [DYN 12, 3-O-methylsorbitollysine]
- elasticity value in treated diabetic rats compared with non-diabetic rats treated with saline (STZ-diabetic rats): not statistically different
- muscle strength measured while alert, vs diabetic rats not so treated (diabetic rats): stronger muscle strength
- plasma 3DG levels (3DG [1]; Diabetic rats): 0.44 ± 0.10 µM
- plasma 3DG levels (3DG [1]; Non-diabetic rats): 0.13 ± 0.02 µM
- only tissue extract found to contain the compound ([2]; brain, heart, muscle, sciatic nerve, spleen, pancreas, liver, kidney examined 3 hours after i.p. injection): kidney
- total 3OMeSL recovered ([2]; individual rats, urine plus kidneys, 13500 nmols injected, listed as 3OMeSL, in nmol): 12355 and 5235 and 13011 and 8257 and 7151 and 7193
- % 3OMeSL recovered ([2]; individual rats, urine plus kidneys, of injected dose, listed as 3OMeSL): 91.5% and 38.8% and 96.4% and 61.2% and 53.0% and 53.3%
- 3DG levels in the plasma of diabetic and non-diabetic animals (3DG [3]): reduces 3DG levels
